Assay [1] deals with ascorbate/Fe²⁺-dependent lipid peroxidation. In words: Ascorbate/Fe²⁺-dependent lipid peroxidation (2-thiobarbituric acid-reactive material). Format: biochemical. To be noted: concentration required to inhibit lipid peroxidation by 50%; 200 µg/ml soy bean phospholipid, 10 µM iron, 100 µM ascorbic acid, 0.1 M KPi pH 7.4, room temperature, 30 min. An excerpt:
(§1) The most remarkable feature of the compounds of the invention is their efficacy as free-radical scavengers or antioxidants. An assay system measuring the concentration of the compounds of formulas (IA) and (IB) required to inhibit lipid peroxidation by 50% (IC₅₀) was used. Other assays described below are the red blood cell fragility test used for measuring membrane stabilisation by indenoindoles (Table 2), and protection by indenoindoles against cytotoxicity of N-methyl-N¹-nitro-N-nitrosoguanidine (MNNG) in rat hepatocytes (Table 3). MNNG is a highly cytotoxic agent, the mechanism of action of which may involve a radical-mediated membrane destabilization.
For the ferrous/ascorbate lipid peroxidation system, 6.25 ml of 0.1 M potassium phosphate buffer (KPi), pH 7.4, was added to 12.5 mg dried soy bean phospholipids. After flushing with argon for 2 min, the suspension was sealed with five layers of Parafilm and sonicated until the suspension was translucent. The final reaction mixture was composed of 200 µg/ml phospholipid, 10 µM FeNH₄ (SO₄)₂ or Fe(NH₄)₂(SO₄)₂, and 100 µM ascorbic acid in 0.1 M KPi (pH 7.4), and the antioxidant to be tested in acetone or DMSO. The volume of vehicle never exceeded 1% of the total volume. The reaction was initiated by the addition of ascorbic acid plus iron. The reaction was continued at room temperature in a shaking water bath for 30 min and then stopped by the addition of […] of 0.5 M butylated hydroxytoluene in DMSO. The above procedure and the subsequent determination of 2-thiobarbituric acid-reactive material is described in: Shertzer, H.G. et al, Biochem. Pharmacol. 37, 333 (1988). […]

In another assay the test system is red blood cells. In words: Red blood cell fragility test (membrane stabilization, protection from osmolysis). In kind it is cell-based, Rats. To be noted: red blood cell fragility protective index value: linear regression slope, percentage protection against osmolysis per µM protecting agent; rat blood, absorbance at 656 nm.
Text: as §1
The membrane stabilization effect of indenoindoles was assayed by the red blood cell fragility test. Rats were anesthesized With 65 mg pentobarbital per kg body weight by i.p. injection. Blood samples were removed into a heparinized syringe from the left ventricle and diluted 20-fold with buffer containing 140 mM NaCl, 10 mM sodium citrate and 5 mM glucose (pH 7.4) at 0°C. Diluted blood was kept on ice. A 0.75 ml aliquot of blood was added to a 4 ml cuvette containing 10 µl DMSO or 10 µl of the antioxidant dissolved in DMSO vehicle. After 1 min of gentle swirling, 0.75 ml of 0.9 % NaCl or H₂O were added to the cuvette by forceful pipetting, and the absorbance at 656 nm was recorded with a Beckman DU-70 spectrophotometer. When H₂O was added in the absence of a stabilizing agent, absorbance decreased wtihin 15 sec to 0.8. Addition of NaCl instead of H₂O gave a time-independent absorbance of 2.2. In the presence of increasing concentrations of stabilizing chemicals, the absorbance decrease observed after the addition of water was diminished. The % protection from osmolysis was obtained from the equation [E(2.2- 0.8) - A/2.2-0.8)] x 100% [formula] , where A=2.2 minus the absor bance decrease when water is added in the presence of a known concentration of chemical. The % protection is then plotted against several concentrations of the chemical being treated. The red blood cell fragility protective index value (RBC-PIV) is the linear regression slope of this plot, expressed as the percentage protection against osmolysis per µM protecting agent. […]

In a further assay the test system is rat hepatocytes. In words: Protection against cytotoxic effects of MNNG in hepatocytes (trypan blue exclusion). Format: cell-based, male Sprague-Dawley rats. To be noted: Hepatocyte, concentration of compound required to extend by 1 hour the time needed for MNNG (0.5 mM) to kill 50 % of the viable cells, read-out: IC₅₀.
Text: as §1
The protective effects of indenoindoles on MNNG-induced cytotoxicity was assayed with rat hepatocytes. Hepatocytes were prepared from male Sprague-Dawley rats by collagenase treatment as originally described by Zahlten and Stratman (Zahlten, R.N. and Stratman, F.W., Arch. Biochem. Biophys. 163, 600 (1988)), as modified by Reitman et al (Reitman, F.A., Shertzer, H.G. and Berger, M.L., Biochem. Pharmacol. 37,3183 (1988)). In order to improve viability, cells were centrifuged through 0.508 g/ml Percoll (Pharmacia AB, Uppsala, Sweden) in 137 mM NaCl, 8.1 mM Na₂HPO₄ and 1.5 mM KH₂PO₄ (pH 7.4). Putative protecting agents were added to the cells as solutions in DMSO, with the final concentration of DMSO never exceeding 5 µl/ml of cell suspension. MNNG was added to a concentration of 0.5 mM as a solution in ethanol, giving a final concentration of ethanol of 1%; ethanol alone was by itself without effect. Viability was determined as the percentage of cells that excluded 0.2 % trypan blue. Values are the concentration of compound required to extend by 1 hour the time needed for MNNG to kill 50 % of the viable cells.

In the case of `CN1c2ccccc2[C@H]2Cc3ccccc3[C@H]21` (relative stereo) [5-Methyl-THII, cis-4b,5,9b,10-Tetrahydro-5-methylindeno[1,2-b]indole], the pIC₅₀ in assay [1] stood at 6.1. In the assay with red blood cells, this compound came in with an RBC-PIV of 0.64 %/µM. Also, in the assay on rat hepatocytes, the IC50 amounted to 2.2 µM.
The corresponding values for `c1ccc2c(c1)C[C@@H]1c3ccccc3N[C@H]21` (relative stereo) [THII, cis-4b,5,9b,10-Tetrahydroindeno[1,2-b]indole] are 6.9, 0.41 %/µM and 2.2 µM.

For the origin of these results see patent EP0409410B1, “Indenoindole compounds” (UNIVERSITY OF BATH, priority 1989, dated 1991).
